Laboratory results taken from ChEMBL document CHEMBL1150986, “Tripeptidyl pyridinium methyl ketones as potent active site inhibitors of thrombin” (Bioorg Med Chem Lett, 1996).

How the values were obtained:
Prothrombin [1] = molecular target: T1, Prothrombin (Homo sapiens, UniProt P00734); experiment: Compound was measured for the inhibition of alpha-human thrombin by clotting test
Prothrombin [2] = molecular target: T1, Prothrombin; experiment: Compound was measured for the inhibition of alpha-human thrombin by amidolytic assay

SMILES | Ki (Prothrombin [1]) | IC50 (Prothrombin [2])
CC(=O)N[C@H](CC1CCCCC1)C(=O)N1CCC[C@H]1C(=O)N[C@@H](CCCN=C(N)N)C(=O)C[n+]1ccccc1 | 21 nM | 180 nM
N=C(N)NCCC[C@H](NC(=O)[C@@H]1CCCN1C(=O)[C@H](N)CC1CCCCC1)C(=O)C[n+]1ccccc1 | 0.19 nM | 1.7 nM
CC(=O)[C@H](CCCN=C(N)N)NC(=O)[C@@H]1CCCN1C(=O)[C@H](N)CC1CCCCC1 | 60 nM | 410 nM
N=C(N)NCCC[C@H](NC(=O)[C@@H]1CCCN1C(=O)[C@H](N)CC1CCCCC1)C(=O)Cc1ccccc1 | 1.25 nM | 9.9 nM
CC(=O)N[C@H](Cc1ccccc1)C(=O)N1CCC[C@H]1C(=O)N[C@@H](CCCNC(=N)N)C(=O)C[n+]1ccccc1 | 310 nM | 2700 nM
CC(=O)N[C@H](CC1CCCCC1)C(=O)N1CCC[C@H]1C(=O)N[C@@H](CCCN=C(N)N)C(=O)Cc1ccccc1 | 185 nM | 630 nM
